From patent US7759331B2, “Pyridine-containing macroheterococylic compounds as kinase inhibitors” (Janssen Pharmaceutica NV, priority 2006, dated 2010)

Key:
Assay in all cases: Protein kinase selectivity panel
Settings in all cases: 1.0 μM compound, 10 μM ATP
[1] = tested on: CK1(y); type: biochemical, yeast
Experimental: Protein kinase selectivity assays were performed as described in the scientific literature (Davies, S. P., et al., Biochem. J. 2000, 351, 95-105). Briefly, protein kinases were assayed for their ability to phosphorylate the appropriate peptide/protein substrates in the presence of 1.0 μM compound. Assays were done using 10 μM ATP and were linear with respect to time. The protein kinase selectivity assays were performed by Upstate Cell Signaling Solutions using Upstate's KinaseProfiler™ Selectivity Screening Service.

[2] = biological target: GSK3α(h) (Homo sapiens, UniProt P49840); type: biochemical
Outline: (§1)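 Read-out is phosphorylation of the kinase's appropriate peptide/protein substrate, with and without 1.0 μM test compound. Assays used 10 μM ATP.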

[3] = biological target: Met(h) (Homo sapiens, UniProt P08581); type: biochemical
Outline: as §1

[4] = biological target: T1, PKCε(h) (Homo sapiens, UniProt Q02156); type: biochemical
T1 sequence (Q02156 1-737): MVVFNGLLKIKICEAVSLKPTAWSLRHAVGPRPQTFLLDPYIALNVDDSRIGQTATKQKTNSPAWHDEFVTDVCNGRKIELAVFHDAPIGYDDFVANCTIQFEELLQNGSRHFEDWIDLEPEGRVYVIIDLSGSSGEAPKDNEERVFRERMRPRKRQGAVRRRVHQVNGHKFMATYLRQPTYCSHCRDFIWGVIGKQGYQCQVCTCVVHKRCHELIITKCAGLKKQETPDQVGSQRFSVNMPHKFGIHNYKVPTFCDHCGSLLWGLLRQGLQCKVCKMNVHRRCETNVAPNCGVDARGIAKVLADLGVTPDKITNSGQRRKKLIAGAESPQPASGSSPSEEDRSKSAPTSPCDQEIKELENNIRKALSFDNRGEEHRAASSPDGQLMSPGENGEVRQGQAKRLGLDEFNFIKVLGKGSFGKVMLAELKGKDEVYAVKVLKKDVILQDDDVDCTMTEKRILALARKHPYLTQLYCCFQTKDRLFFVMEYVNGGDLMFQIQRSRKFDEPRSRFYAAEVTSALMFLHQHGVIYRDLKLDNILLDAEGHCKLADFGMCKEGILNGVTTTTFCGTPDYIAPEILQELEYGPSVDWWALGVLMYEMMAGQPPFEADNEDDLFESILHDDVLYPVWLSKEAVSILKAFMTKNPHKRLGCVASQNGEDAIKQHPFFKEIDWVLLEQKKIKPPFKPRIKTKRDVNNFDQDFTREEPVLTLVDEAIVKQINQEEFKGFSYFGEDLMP
Outline: as §1

[5] = biological target: T2, PKCμ(h) (Homo sapiens, UniProt Q15139); type: biochemical
T2 sequence (Q15139 1-912): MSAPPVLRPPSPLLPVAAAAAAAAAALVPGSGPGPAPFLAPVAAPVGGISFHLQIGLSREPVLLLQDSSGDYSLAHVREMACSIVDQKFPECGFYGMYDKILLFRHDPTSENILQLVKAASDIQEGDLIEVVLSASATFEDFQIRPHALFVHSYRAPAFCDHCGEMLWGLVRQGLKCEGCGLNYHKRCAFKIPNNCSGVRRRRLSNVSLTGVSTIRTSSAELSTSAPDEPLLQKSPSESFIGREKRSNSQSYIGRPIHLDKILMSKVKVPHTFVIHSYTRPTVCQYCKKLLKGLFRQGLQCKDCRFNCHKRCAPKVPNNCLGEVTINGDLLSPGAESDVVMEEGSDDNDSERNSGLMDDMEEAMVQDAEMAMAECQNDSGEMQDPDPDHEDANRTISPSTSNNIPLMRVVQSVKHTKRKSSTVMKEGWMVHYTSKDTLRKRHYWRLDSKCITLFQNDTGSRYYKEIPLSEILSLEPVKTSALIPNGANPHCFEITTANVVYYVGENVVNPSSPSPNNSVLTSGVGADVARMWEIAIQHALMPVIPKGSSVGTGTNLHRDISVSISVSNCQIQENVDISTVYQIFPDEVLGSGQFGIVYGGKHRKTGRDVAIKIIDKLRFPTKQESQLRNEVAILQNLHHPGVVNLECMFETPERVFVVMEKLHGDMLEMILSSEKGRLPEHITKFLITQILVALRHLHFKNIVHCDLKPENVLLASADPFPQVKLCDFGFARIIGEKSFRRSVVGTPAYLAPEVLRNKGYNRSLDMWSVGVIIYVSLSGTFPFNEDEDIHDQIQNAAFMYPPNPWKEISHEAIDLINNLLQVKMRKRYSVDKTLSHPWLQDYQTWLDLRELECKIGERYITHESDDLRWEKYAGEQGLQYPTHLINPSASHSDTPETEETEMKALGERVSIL
Outline: as §1

[6] = biological target: Tie2(h) (Homo sapiens, UniProt Q02763); type: biochemical
Outline: as §1

Met(h), sequence (P08581 25-1390): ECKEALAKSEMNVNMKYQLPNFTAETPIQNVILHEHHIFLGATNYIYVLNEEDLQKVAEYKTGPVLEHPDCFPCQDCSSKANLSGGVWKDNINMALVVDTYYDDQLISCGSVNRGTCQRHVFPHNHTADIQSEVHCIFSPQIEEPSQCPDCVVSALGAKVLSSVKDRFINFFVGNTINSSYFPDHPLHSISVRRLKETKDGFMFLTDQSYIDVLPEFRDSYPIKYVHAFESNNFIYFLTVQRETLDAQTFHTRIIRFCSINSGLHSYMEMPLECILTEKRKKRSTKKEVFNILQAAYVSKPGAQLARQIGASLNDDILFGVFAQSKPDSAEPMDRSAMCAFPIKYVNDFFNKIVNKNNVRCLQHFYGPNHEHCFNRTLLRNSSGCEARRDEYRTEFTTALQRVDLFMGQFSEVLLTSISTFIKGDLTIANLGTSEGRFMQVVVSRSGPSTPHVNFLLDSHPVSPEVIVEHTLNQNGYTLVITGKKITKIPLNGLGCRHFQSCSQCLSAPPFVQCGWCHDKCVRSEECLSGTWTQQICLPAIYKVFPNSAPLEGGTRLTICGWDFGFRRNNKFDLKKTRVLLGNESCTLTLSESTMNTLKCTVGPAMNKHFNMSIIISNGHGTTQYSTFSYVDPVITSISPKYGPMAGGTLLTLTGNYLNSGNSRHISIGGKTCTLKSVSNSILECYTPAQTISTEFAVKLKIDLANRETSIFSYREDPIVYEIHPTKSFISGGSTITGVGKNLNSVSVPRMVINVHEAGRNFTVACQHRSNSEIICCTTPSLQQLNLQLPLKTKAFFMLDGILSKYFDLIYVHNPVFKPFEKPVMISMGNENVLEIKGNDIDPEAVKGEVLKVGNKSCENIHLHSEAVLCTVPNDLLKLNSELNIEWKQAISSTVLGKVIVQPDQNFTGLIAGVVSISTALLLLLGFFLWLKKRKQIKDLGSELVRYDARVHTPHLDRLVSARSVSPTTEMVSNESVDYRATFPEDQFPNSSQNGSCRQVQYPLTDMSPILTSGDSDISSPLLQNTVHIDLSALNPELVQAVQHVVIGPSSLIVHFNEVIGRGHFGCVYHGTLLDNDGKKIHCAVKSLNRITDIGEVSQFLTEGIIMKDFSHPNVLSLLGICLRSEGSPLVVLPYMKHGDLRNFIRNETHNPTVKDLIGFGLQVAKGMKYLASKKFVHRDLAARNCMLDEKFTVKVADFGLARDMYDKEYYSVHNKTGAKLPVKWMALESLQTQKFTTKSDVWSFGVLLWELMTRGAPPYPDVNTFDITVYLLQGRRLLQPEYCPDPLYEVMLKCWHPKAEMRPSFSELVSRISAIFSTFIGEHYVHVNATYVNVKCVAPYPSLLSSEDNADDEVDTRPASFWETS
GSK3α(h), sequence (P49840 whole entry): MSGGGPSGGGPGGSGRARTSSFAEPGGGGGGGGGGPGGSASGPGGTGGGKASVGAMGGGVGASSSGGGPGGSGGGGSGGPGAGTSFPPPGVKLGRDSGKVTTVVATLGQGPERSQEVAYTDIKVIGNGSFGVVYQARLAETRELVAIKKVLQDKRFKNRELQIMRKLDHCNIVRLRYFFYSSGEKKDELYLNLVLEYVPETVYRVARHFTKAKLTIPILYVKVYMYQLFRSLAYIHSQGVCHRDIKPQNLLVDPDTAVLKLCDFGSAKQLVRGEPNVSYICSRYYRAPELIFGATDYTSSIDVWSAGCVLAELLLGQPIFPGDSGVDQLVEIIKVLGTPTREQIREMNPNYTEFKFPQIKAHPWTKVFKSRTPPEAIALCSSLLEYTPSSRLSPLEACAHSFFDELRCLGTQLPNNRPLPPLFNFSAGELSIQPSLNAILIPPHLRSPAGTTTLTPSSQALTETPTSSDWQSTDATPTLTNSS
Tie2(h), sequence (Q02763 23-1124): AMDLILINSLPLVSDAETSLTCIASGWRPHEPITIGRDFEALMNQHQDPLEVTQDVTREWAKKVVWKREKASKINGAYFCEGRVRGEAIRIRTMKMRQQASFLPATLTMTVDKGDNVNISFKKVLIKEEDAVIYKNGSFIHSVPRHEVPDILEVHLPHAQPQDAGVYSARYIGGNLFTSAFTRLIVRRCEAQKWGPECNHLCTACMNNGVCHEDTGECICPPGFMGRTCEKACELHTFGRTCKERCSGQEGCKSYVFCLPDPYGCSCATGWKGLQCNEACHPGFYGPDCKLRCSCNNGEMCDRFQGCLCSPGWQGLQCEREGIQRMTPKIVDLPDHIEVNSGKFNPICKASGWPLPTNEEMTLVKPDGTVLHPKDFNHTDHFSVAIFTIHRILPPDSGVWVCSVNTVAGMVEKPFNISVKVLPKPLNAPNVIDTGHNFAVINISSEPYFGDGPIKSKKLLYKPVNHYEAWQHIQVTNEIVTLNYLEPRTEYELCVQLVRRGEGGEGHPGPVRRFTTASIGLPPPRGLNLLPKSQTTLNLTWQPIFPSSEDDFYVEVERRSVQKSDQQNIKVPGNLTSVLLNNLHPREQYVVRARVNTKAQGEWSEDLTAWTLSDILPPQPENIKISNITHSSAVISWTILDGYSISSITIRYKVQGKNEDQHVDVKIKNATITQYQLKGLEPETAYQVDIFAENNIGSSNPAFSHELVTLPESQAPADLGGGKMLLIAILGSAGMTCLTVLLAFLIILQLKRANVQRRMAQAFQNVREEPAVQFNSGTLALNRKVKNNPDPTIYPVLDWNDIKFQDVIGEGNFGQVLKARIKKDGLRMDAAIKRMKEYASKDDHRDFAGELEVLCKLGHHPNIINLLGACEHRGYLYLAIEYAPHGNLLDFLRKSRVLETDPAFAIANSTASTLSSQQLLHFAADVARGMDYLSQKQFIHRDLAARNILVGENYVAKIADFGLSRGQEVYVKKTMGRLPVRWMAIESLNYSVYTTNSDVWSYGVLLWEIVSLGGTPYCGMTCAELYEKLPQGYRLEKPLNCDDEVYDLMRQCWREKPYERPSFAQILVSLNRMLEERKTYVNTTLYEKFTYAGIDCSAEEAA

Row | Activity at Protein Kinase Assays (% of control), CK1(y) [1] | Activity at Protein Kinase Assays (% of control), GSK3α(h) [2] | Activity at Protein Kinase Assays (% of control), Met(h) [3] | Activity at Protein Kinase Assays (% of control), PKCε(h) [4] | Activity at Protein Kinase Assays (% of control), PKCμ(h) [5] | Activity at Protein Kinase Assays (% of control), Tie2(h) [6] | SMILES
1 | 99 % of control | 4 % of control | 129 % of control | 93 % of control | 118 % of control | 96 % of control | O=C1NC(=O)C2=C1c1cn(c3ccccc13)CCCc1cc(nc(N3CCCC3)c1)CCCn1cc2c2ccccc21 [Cpd 6, 20-pyrrolidin-1-yl-4,14,19,26-tetraazaheptacyclo[24.6.1.1^7,14.1^18,22.0^2,6.0^8,13.0^27,32]pentatriaconta-1(33),2(6),7(35),8,10,12,18(34),19,21,27,29,31-dodecaene-3,5-dione]
2 | 98 % of control | 9 % of control | 132 % of control | 97 % of control | 113 % of control | 107 % of control | O=C1NC(=O)C2=C1c1cn(c3ccccc13)CCCc1ccc(c(N3CCCC3)n1)CCCn1cc2c2ccccc21 [Cpd 7, 31-pyrrolidin-1-yl-5,15,25,30-tetraazaheptacyclo[27.2.2.1^5,12.1^18,25.0^6,11.0^13,17.0^19,24]pentatriaconta-1(31),6,8,10,12(35),13(17),18(34),19,21,23,29,32-dodecaene-14,16-dione]
3 | 98 % of control | 3 % of control | 132 % of control | 83 % of control | 118 % of control | 109 % of control | CN(C)c1cc2cc(n1)CCCn1cc(c3ccccc31)C1=C(C(=O)NC1=O)c1cn(c3ccccc13)CCC2 [Cpd 2, 20-(dimethylamino)-4,14,19,26-tetraazaheptacyclo[24.6.1.1^7,14.1^18,22.0^2,6.0^8,13.0^27,32]pentatriaconta-1(33),2(6),7(35),8,10,12,18(34),19,21,27,29,31-dodecaene-3,5-dione]
4 | 91 % of control | 4 % of control | 121 % of control | 72 % of control | 110 % of control | 110 % of control | CN(C)c1nc2ccc1CCCCn1cc(c3ccccc31)C1=C(C(=O)NC1=O)c1cn(c3ccccc13)CCC2 [Cpd 1, 31-(dimethylamino)-5,15,25,32-tetraazaheptacyclo[28.2.2.1^5,12.1^18,25.0^6,11.0^13,17.0^19,24]hexatriaconta-1(32),6,8,10,12(36),13(17),18(35),19,21,23,30,33-dodecaene-14,16-dione]
